These results are taken from patent US10543212B2, “Substituted amines for treating cardiac diseases” (Cardurion Pharmaceuticals, LLC, priority 2017, dated 2020).

pIC50: −log10 of the molar value. A value given as a limit tells only on which side of the number the result lay.

In this assay the target is T1, Full-length, GST-tagged, human CaMKIIδ (Homo sapiens, UniProt Q13557).
T1 construct: Full-Length, Glutathione-S-Transferase(GST)-Tagged, Human CaMKIIδ was purchased from Carna Biosciences; purchased Carna Biosciences 02-111
T1 sequence (Q13557 1-478 isoform Q13557-12): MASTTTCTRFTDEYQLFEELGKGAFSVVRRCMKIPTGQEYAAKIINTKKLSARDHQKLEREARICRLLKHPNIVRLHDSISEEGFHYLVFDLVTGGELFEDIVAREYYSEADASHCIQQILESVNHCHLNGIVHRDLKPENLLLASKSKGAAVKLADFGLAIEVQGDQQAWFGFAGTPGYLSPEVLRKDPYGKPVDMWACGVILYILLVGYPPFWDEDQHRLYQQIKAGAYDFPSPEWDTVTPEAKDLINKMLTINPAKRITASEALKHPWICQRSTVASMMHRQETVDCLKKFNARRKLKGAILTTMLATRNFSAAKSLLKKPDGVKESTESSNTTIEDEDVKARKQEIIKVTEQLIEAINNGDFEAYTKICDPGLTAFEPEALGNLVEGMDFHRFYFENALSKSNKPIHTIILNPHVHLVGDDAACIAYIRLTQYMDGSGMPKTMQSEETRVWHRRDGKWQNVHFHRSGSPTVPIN
Nature of the assay: CaMKIIδ binding assay (TR-FRET with BODIPY-labeled probe ligand). Conditions: CaMKIIδ binding assay, results of Table 2. How it is done:
In vitro CaMKIIδ inhibitory activity was evaluated by a binding assay.
Full-Length, Glutathione-S-Transferase(GST)-Tagged, Human CaMKIIδ was purchased from Carna Biosciences (product #02-111, Kobe, Japan). Full-length bovine calmodulin was purchased from Wako Pure Chemical Industries (Osaka, Japan). Terbium-labeled anti-GST antibody (Tb-anti-GST Ab) was purchased from Life Technologies (Carlsbad, Calif., USA). Boron-dipyrromethene (BODIPY)-labeled probe ligand was synthesized as described below.
Time-Resolved Fluorescence Resonance Energy Transfer (TR-FRET) Assay
All assays were conducted using 384-well, white, flat-bottomed plates (product #784075, Greiner Bio-One, Frickenhausen, Germany) in kinase assay buffer, which consists of 50 mM HEPES pH 7.6, 10 mM MgCl2, 1 mM EGTA, 0.01% Brig-35, 0.1 mM DTT). The fluorescent probe ligand was added at a final concentration of 300 nM to solutions containing 0.21 nM Tb-anti-GST Ab, 1 mM CaCl2), 10 μg/mL calmodulin, and 0.5 nM GST-tagged CaMKIIδ. After shaded incubation of the protein-probe mixture on ice for 30 min, the premix was dispensed in the assay plate including test inhibitors with 4 fold dilution series of eight concentrations. After 1 hr incubation at room temperature, TR-FRET signals were measured in duplicate using an EnVision microplate reader (Perkin Elmer, Waltham, Mass., USA). The solution in each well was excited with a laser (λ=340 nm) reflected by a dichroic mirror (D400/D505 (Perkin Elmer) through an excitation filter (UV (TRF) 340, (Perkin Elmer)), and fluorescence from Tb and BODIPY were detected through two emission filters (CFP 495 (Perkin Elmer) for Tb, Emission 520 (Perkin Elmer) for BODIPY).
The percentage of inhibition of test compounds was calculated according to equation (1) Inhibition (%)=100×([…]−T)/(μH−μL) (1)
Where T is the value of the wells containing test compounds and μH and μL are the mean values of the 0% and 100% inhibition control wells, respectively. The values of the 0 and 100% controls were the signals obtained in the absence and presence of 3 μM its parent compound, respectively. The half maximal inhibitory concentration (IC50) of test compounds was calculated by fitting the data with the logistic equation using XLfit (IDBS, Guildford, UK). The IC50 was classified according to the following activity ranks.
(In general: TR-FRET usually uses a lanthanide donor and a delayed reading to cut background.)
For orientation: pIC50 means −log10 of the IC50, conventionally taken in molar units. A lower pIC50 goes with a large IC50. Molecule `COc1cc2c(cc1Nc1ncc(-c3ccc(Cl)c(O[C@@H](C)Cn4cnnn4)c3)cn1)CN(C1COC1)CCC2` [Example 467, (S)-N-(5-(3-((1-(1H-tetrazol-1-yl)propan-2-yl)oxy)-4-chlorophenyl)pyrimidin-2-yl)-7-methoxy-2-(oxetan-3-yl)-2,3,4,5-tetrahydro-1H-benzo[c]azepin-8-amine] had a pIC50 of 7.00 to 8.00. As for `COc1cc2c(cc1Nc1ncc(-c3ccc(Cl)c(O[C@@H](C)Cn4cnnn4)c3)cn1)CCN(C1COC1)C2` [Example 468, (S)-N-(5-(3-((1-(1H-tetrazol-1-yl)propan-2-yl)oxy)-4-chlorophenyl)pyrimidin-2-yl)-7-methoxy-2-(oxetan-3-yl)-1,2,3,4-tetrahydroisoquinolin-6-amine], the figure is greater than 8.00; as for `COCC(=O)N1CCc2cc(Nc3ncc(-c4ccc(Cl)c(O[C@@H](C)Cn5cnnn5)c4)cn3)c(OC)cc2C1` [Example 469, (S)-1-(6-((5-(3-((1-(1H-tetrazol-1-yl)propan-2-yl)oxy)-4-chlorophenyl)pyrimidin-2-yl)amino)-7-methoxy-3,4-dihydroisoquinolin-2(1H)-yl)-2-methoxyethan-1-one], 7.00 to 8.00. Molecule `COc1cc2c(cc1Nc1ncc(-c3ccc(Cl)c(O[C@@H](C)Cn4cnnn4)c3)cn1)CCN(C(=O)CN1CCOCC1)C2` [Example 470, (S)-1-(6-((5-(3-((1-(1H-tetrazol-1-yl)propan-2-yl)oxy)-4-chlorophenyl)pyrimidin-2-yl)amino)-7-methoxy-3,4-dihydroisoquinolin-2(1H)-yl)-2-morpholinoethan-1-one] gave a pIC50 greater than 8.00. As for `COc1cc2c(cc1Nc1ncc(-c3ccc(Cl)c(O[C@@H](C)Cn4cnnn4)c3)cn1)CCN(C=O)C2` [Example 471, (S)-6-((5-(3-((1-(1H-tetrazol-1-yl)propan-2-yl)oxy)-4-chlorophenyl)pyrimidin-2-yl)amino)-7-methoxy-3,4-dihydroisoquinoline-2(1H)-carbaldehyde], the figure is 7.00 to 8.00; as for `COc1cc(C2CCCNC2)ccc1Nc1ncc(-c2ccc(C#N)c(O[C@@H](C)Cn3cnnn3)c2)cn1` (stereo partly drawn) [Example 472, 2-(((S)-1-(1H-tetrazol-1-yl)propan-2-yl)oxy)-4-(2-((2-methoxy-4-(piperidin-3-yl)phenyl)amino)pyrimidin-5-yl)benzonitrile], greater than 8.00; as for `COc1cc(C2CCCNC2)ccc1Nc1ncc(-c2ccc(Cl)c(O[C@@H](C)Cn3cnnn3)c2)cn1` (stereo partly drawn) [Example 473, 5-(3-(((S)-1-(1H-tetrazol-1-yl)propan-2-yl)oxy)-4-chlorophenyl)-N-(2-methoxy-4-(piperidin-3-yl)phenyl)pyrimidin-2-amine], greater than 8.00. The result for `COc1cc2c(cc1Nc1ncc(-c3ccc(Cl)c(O[C@@H](C)Cn4cnnn4)c3)cn1)CCN(C1CCOCC1)C2` [Example 474, (S)-N-(5-(3-((1-(1H-tetrazol-1-yl)propan-2-yl)oxy)-4-chlorophenyl)pyrimidin-2-yl)-7-methoxy-2-(tetrahydro-2H-pyran-4-yl)-1,2,3,4-tetrahydroisoquinolin-6-amine] reads greater than 8.00; that for `COc1cc2c(cc1Nc1ncc(-c3ccc(Cl)c(O[C@@H](C)Cn4cnnn4)c3)cn1)CCN(CC1COC1)C2` [Example 475, (S)-N-(5-(3-((1-(1H-tetrazol-1-yl)propan-2-yl)oxy)-4-chlorophenyl)pyrimidin-2-yl)-7-methoxy-2-(oxetan-3-ylmethyl)-1,2,3,4-tetrahydroisoquinolin-6-amine], greater than 8.00; that for `COc1cc2c(cc1Nc1ncc(-c3ccc(Cl)c(O[C@@H](C)Cn4cnnn4)c3)cn1)CCN(CC(F)F)C2` [Example 476, (S)-N-(5-(3-((1-(1H-tetrazol-1-yl)propan-2-yl)oxy)-4-chlorophenyl)pyrimidin-2-yl)-2-(2,2-difluoroethyl)-7-methoxy-1,2,3,4-tetrahydroisoquinolin-6-amine], 7.00 to 8.00.
